Results from PubChem BioAssay AID256 (DTP/NCI, 2004).
Values joined by “and” are separate entries in the source; they are usually repeats but may differ in a detail not shown here. Identical values can stand only once. Toxic doses and inconclusive results are not listed. How the source made its calls: active means survival T/C of 150% or more; inactive means T/C below 125% in these data.

Test system: CD2F1 mice, L1210 leukemia ip, survival T/C
Test: NCI In Vivo Anticancer Drug Screen. Data for tumor model L1210 Leukemia (intraperitoneal) in CD2F1 (CDF1) mice
Conditions: higher = longer survival
Outline: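 Transplantable tumor in mice; compound-treated vs vehicle-treated groups. Read-out = treated/control ratio of the measured endpoint.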

[1] = endpoint: mean survival time, dose: 100.0 mg/kg/injection, schedule: Q01DX009 (ip), vehicle: saline with Tween-80
[2] = endpoint: mean survival time, dose: 100.0 mg/kg/injection, schedule: Q04DX003 (ip), vehicle: saline with Tween-80
[3] = endpoint: mean survival time, dose: 200.0 mg/kg/injection, schedule: Q01DX009 (ip), vehicle: saline with Tween-80
[4] = endpoint: mean survival time, dose: 200.0 mg/kg/injection, schedule: Q04DX003 (ip), vehicle: saline with Tween-80
[5] = endpoint: mean survival time, dose: 400.0 mg/kg/injection, schedule: Q01DX009 (ip), vehicle: saline with Tween-80
[6] = endpoint: mean survival time, dose: 400.0 mg/kg/injection, schedule: Q04DX003 (ip), vehicle: saline with Tween-80
[7] = endpoint: mean survival time, dose: 50.0 mg/kg/injection, schedule: Q01DX009 (ip), vehicle: saline
[8] = endpoint: mean survival time, dose: 100.0 mg/kg/injection, schedule: Q01DX009 (ip), vehicle: saline
[9] = endpoint: mean survival time, dose: 3.0 mg/kg/injection, schedule: Q01DX009 (ip), vehicle: saline sonified
[10] = endpoint: mean survival time, dose: 6.0 mg/kg/injection, schedule: Q01DX009 (ip), vehicle: saline sonified
[11] = endpoint: mean survival time, dose: 200.0 mg/kg/injection, schedule: Q04DX002 (ip), vehicle: saline with Tween-80
[12] = endpoint: mean survival time, dose: 400.0 mg/kg/injection, schedule: Q04DX002 (ip), vehicle: saline with Tween-80

Measured: T/C

COc1cc([N+](=O)[O-])c(C=O)c(C(=O)O)c1OC
inactive: [1] 103 % of control | [2] 90 % of control | [3] 104 % of control | [4] 98 % of control | [5] 110 % of control | [6] 107 % of control

OCC1OC(n2cnc3c(OC4CCCC4)ncnc32)C(O)C1O (stereo unspecified)
inactive: endpoint: mean survival time, dose: 100.0 mg/kg/injection, schedule: Q01DX001 (ip), vehicle: saline 101 % of control | endpoint: mean survival time, dose: 200.0 mg/kg/injection, schedule: Q01DX001 (ip), vehicle: saline 100 % of control | endpoint: mean survival time, dose: 400.0 mg/kg/injection, schedule: Q01DX001 (ip), vehicle: saline 100 % of control

C(=N\N=C(c1ccccc1)c1ccccc1)/c1ccc2c(c1)CCC2
inactive: [2] 87 % of control | [4] 95 % of control | [6] 91 % of control

CCOC(=O)/C(C#N)=C1/C=Cc2ccccc2N1
inactive: [1] 102 % of control | [2] 109 % of control | [3] 96 % of control | [4] 97 % of control | [5] 96 % of control | [6] 97 % of control

Cn1c(=O)[nH]c2c(nc(-c3ccc(Cl)cc3)n2CCc2ccccc2)c1=O
inactive: endpoint: mean survival time, dose: 7.8 mg/kg/injection, schedule: Q01DX005 (ip), vehicle: other 100 % of control | endpoint: mean survival time, dose: 15.6 mg/kg/injection, schedule: Q01DX005 (ip), vehicle: other 95 % of control | endpoint: mean survival time, dose: 31.3 mg/kg/injection, schedule: Q01DX005 (ip), vehicle: other 95 % of control | endpoint: mean survival time, dose: 62.5 mg/kg/injection, schedule: Q01DX005 (ip), vehicle: other 95 % of control | endpoint: mean survival time, dose: 125.0 mg/kg/injection, schedule: Q01DX005 (ip), vehicle: other 95 % of control

CN(/N=N/c1nc[nH]c1C(N)=O)C(C)(C)C
inactive: endpoint: mean survival time, dose: 18.75 mg/kg/injection, schedule: Q01DX009 (ip), vehicle: Klucel (hydroxypropylcellulose) (HPC) 96 % of control | endpoint: mean survival time, dose: 37.5 mg/kg/injection, schedule: Q01DX009 (ip), vehicle: Klucel (hydroxypropylcellulose) (HPC) 110 % of control | endpoint: mean survival time, dose: 75.0 mg/kg/injection, schedule: Q01DX009 (ip), vehicle: Klucel (hydroxypropylcellulose) (HPC) 109 % of control | endpoint: mean survival time, dose: 150.0 mg/kg/injection, schedule: Q01DX009 (ip), vehicle: Klucel (hydroxypropylcellulose) (HPC) 109 % of control | endpoint: mean survival time, dose: 300.0 mg/kg/injection, schedule: Q01DX009 (ip), vehicle: Klucel (hydroxypropylcellulose) (HPC) 103 % of control

Cc1ccc(Sc2ccc([N+](=O)[O-])cc2)cc1
inactive: [1] 96 % of control | [2] 100 % of control | [3] 102 % of control | [4] 100 % of control | [5] 96 % of control | [6] 91 % of control

CCOC(=O)NN=C1CCCC1
inactive: endpoint: mean survival time, dose: 12.5 mg/kg/injection, schedule: Q01DX009 (ip), vehicle: saline with Tween-80 88 % of control | endpoint: mean survival time, dose: 25.0 mg/kg/injection, schedule: Q01DX009 (ip), vehicle: saline with Tween-80 88 % of control | endpoint: mean survival time, dose: 50.0 mg/kg/injection, schedule: Q01DX009 (ip), vehicle: saline with Tween-80 92 % of control

CC(=O)Nc1cscc1NC(C)=O
inactive: endpoint: median survival time, dose: 12.5 mg/kg/injection, schedule: Q01DX009 (ip), vehicle: saline with Tween-80 100 % of control | endpoint: median survival time, dose: 25.0 mg/kg/injection, schedule: Q01DX009 (ip), vehicle: saline with Tween-80 105 % of control and 111 % of control | endpoint: median survival time, dose: 50.0 mg/kg/injection, schedule: Q01DX009 (ip), vehicle: saline with Tween-80 91 % of control and 103 % of control | endpoint: median survival time, dose: 100.0 mg/kg/injection, schedule: Q01DX009 (ip), vehicle: saline with Tween-80 100 % of control and 101 % of control | endpoint: median survival time, dose: 200.0 mg/kg/injection, schedule: Q01DX009 (ip), vehicle: saline with Tween-80 102 % of control and 103 % of control | endpoint: median survival time, dose: 400.0 mg/kg/injection, schedule: Q01DX009 (ip), vehicle: saline with Tween-80 103 % of control and 108 % of control

Cc1c(Cc2ccccc2)[n+](=O)c2ccccc2n1[O-]
inactive: [2] 97 % of control | [4] 101 % of control | [6] 98 % of control

C#CCC(O)CC (stereo unspecified)
inactive: [7] 103 % of control | [8] 107 % of control | endpoint: mean survival time, dose: 200.0 mg/kg/injection, schedule: Q01DX009 (ip), vehicle: saline 103 % of control

NC1=NCCCN1
inactive: [9] 109 % of control | [10] 111 % of control | endpoint: mean survival time, dose: 12.0 mg/kg/injection, schedule: Q01DX009 (ip), vehicle: saline sonified 94 % of control

COc1ccc(NC(=O)Nc2ccc(Cl)cc2OC)cc1
inactive: [11] 93 % of control | [12] 90 % of control

CN(C)CCCN=C(N)CSP(=O)(O)O
inactive: endpoint: mean survival time, dose: 100.0 mg/kg/injection, schedule: Q04DX002 (ip), vehicle: saline 102 % of control | endpoint: mean survival time, dose: 200.0 mg/kg/injection, schedule: Q04DX002 (ip), vehicle: saline 109 % of control

O/N=c1/ccn(O)c2ccccc12
inactive: endpoint: mean survival time, dose: 0.25 mg/kg/injection, schedule: Q03HX024 (ip), vehicle: saline 104 % of control | endpoint: mean survival time, dose: 0.5 mg/kg/injection, schedule: Q03HX008 (ip), vehicle: saline 112 % of control | endpoint: mean survival time, dose: 0.5 mg/kg/injection, schedule: Q03HX016 (ip), vehicle: saline 104 % of control | endpoint: mean survival time, dose: 0.5 mg/kg/injection, schedule: Q03HX024 (ip), vehicle: saline 116 % of control | endpoint: mean survival time, dose: 1.0 mg/kg/injection, schedule: Q01DX009 (ip), vehicle: saline 123 % of control | endpoint: mean survival time, dose: 1.0 mg/kg/injection, schedule: Q03HX008 (ip), vehicle: saline 113 % of control | endpoint: mean survival time, dose: 1.0 mg/kg/injection, schedule: Q03HX016 (ip), vehicle: saline 113 % of control | endpoint: mean survival time, dose: 2.0 mg/kg/injection, schedule: Q03HX024 (ip), vehicle: saline 123 % of control | endpoint: mean survival time, dose: 16.0 mg/kg/injection, schedule: Q01DX001 (ip), vehicle: saline 124 % of control | endpoint: mean survival time, dose: 16.0 mg/kg/injection, schedule: Q04DX003 (ip), vehicle: saline 96 % of control | endpoint: mean survival time, dose: 16.0 mg/kg/injection, schedule: Q08DX002 (ip), vehicle: saline 109 % of control | endpoint: mean survival time, dose: 32.0 mg/kg/injection, schedule: Q08DX002 (ip), vehicle: saline 88 % of control

O=C(CCCCl)CC(O)(C(F)(F)Cl)C(F)(F)Cl
inactive: endpoint: mean survival time, dose: 25.0 mg/kg/injection, schedule: Q01DX009 (ip), vehicle: saline 94 % of control | [7] 100 % of control | [8] 94 % of control

CC(C)C1C=CC(C)(/C=C/N2CCCC2)CC1 (stereo unspecified)
inactive: endpoint: mean survival time, dose: 75.0 mg/kg/injection, schedule: Q01DX001 (ip), vehicle: other 98 % of control | endpoint: mean survival time, dose: 150.0 mg/kg/injection, schedule: Q01DX001 (ip), vehicle: other 98 % of control | endpoint: mean survival time, dose: 300.0 mg/kg/injection, schedule: Q01DX001 (ip), vehicle: other 102 % of control

N#CC(C#N)=Cc1ccc(Cl)cc1
inactive: endpoint: mean survival time, dose: 25.0 mg/kg/injection, schedule: Q04DX003 (ip), vehicle: saline with Tween-80 89 % of control | endpoint: mean survival time, dose: 50.0 mg/kg/injection, schedule: Q04DX003 (ip), vehicle: saline with Tween-80 101 % of control | [2] 86 % of control and 98 % of control

COC(=O)/C=C/CNC(C)C
inactive: endpoint: mean survival time, dose: 12.5 mg/kg/injection, schedule: Q01DX009 (ip), vehicle: water 93 % of control | endpoint: mean survival time, dose: 25.0 mg/kg/injection, schedule: Q01DX009 (ip), vehicle: water 95 % of control | endpoint: mean survival time, dose: 50.0 mg/kg/injection, schedule: Q01DX009 (ip), vehicle: water 96 % of control | endpoint: mean survival time, dose: 100.0 mg/kg/injection, schedule: Q01DX009 (ip), vehicle: water 96 % of control | endpoint: mean survival time, dose: 200.0 mg/kg/injection, schedule: Q01DX009 (ip), vehicle: water 101 % of control

CCCCCCCCCCCCCCCC(=O)N(CCCN(C)C)c1ccc(N(CCCN(C)C)C(=O)CCCCCCCCCCCCCCC)cc1
inactive: endpoint: mean survival time, dose: 1.5 mg/kg/injection, schedule: Q01DX009 (ip), vehicle: saline sonified 98 % of control | [9] 101 % of control | [10] 98 % of control

O=C(NCCNC(=O)Nc1ccccc1Cl)Nc1ccccc1Cl
inactive: endpoint: mean survival time, dose: 100.0 mg/kg/injection, schedule: Q04DX002 (ip), vehicle: saline with Tween-80 104 % of control | [11] 97 % of control | [12] 101 % of control

C=CCN(CC=C)C(=S)Nc1cccc(Br)c1
inactive: endpoint: mean survival time, dose: 100.0 mg/kg/injection, schedule: Q01DX009 (ip), vehicle: other 96 % of control | endpoint: mean survival time, dose: 200.0 mg/kg/injection, schedule: Q01DX009 (ip), vehicle: other 95 % of control | endpoint: mean survival time, dose: 400.0 mg/kg/injection, schedule: Q01DX009 (ip), vehicle: other 101 % of control
